The source of these data is US10233173B2, “Substituted 1,2,3-triazoles as NR2B-selective NMDA modulators” (JANSSEN PHARMACEUTICA NV, priority 2016, dated 2019).

For the test, the target named is human GluN1/GluN2B NMDA receptors (Homo sapiens, UniProt Q05586+Q13224). In words: Cell-based calcium flux (FLIPR) assay on cloned human NR1/NR2B ion channels expressed in mammalian cells. The following applies: standard assay; glutamate at ~EC80; FLIPR calcium flux. In short, it runs like this: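 Calcium influx followed by FLIPR fluorescence after 5 min compound exposure and a further 5 min co-agonist challenge: 10 μM glycine with glutamate at ~EC80 (standard) or EC40 (HTS).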
Chain of human GluN1/GluN2B NMDA receptors (Q13224 27-1484, other chains not shown): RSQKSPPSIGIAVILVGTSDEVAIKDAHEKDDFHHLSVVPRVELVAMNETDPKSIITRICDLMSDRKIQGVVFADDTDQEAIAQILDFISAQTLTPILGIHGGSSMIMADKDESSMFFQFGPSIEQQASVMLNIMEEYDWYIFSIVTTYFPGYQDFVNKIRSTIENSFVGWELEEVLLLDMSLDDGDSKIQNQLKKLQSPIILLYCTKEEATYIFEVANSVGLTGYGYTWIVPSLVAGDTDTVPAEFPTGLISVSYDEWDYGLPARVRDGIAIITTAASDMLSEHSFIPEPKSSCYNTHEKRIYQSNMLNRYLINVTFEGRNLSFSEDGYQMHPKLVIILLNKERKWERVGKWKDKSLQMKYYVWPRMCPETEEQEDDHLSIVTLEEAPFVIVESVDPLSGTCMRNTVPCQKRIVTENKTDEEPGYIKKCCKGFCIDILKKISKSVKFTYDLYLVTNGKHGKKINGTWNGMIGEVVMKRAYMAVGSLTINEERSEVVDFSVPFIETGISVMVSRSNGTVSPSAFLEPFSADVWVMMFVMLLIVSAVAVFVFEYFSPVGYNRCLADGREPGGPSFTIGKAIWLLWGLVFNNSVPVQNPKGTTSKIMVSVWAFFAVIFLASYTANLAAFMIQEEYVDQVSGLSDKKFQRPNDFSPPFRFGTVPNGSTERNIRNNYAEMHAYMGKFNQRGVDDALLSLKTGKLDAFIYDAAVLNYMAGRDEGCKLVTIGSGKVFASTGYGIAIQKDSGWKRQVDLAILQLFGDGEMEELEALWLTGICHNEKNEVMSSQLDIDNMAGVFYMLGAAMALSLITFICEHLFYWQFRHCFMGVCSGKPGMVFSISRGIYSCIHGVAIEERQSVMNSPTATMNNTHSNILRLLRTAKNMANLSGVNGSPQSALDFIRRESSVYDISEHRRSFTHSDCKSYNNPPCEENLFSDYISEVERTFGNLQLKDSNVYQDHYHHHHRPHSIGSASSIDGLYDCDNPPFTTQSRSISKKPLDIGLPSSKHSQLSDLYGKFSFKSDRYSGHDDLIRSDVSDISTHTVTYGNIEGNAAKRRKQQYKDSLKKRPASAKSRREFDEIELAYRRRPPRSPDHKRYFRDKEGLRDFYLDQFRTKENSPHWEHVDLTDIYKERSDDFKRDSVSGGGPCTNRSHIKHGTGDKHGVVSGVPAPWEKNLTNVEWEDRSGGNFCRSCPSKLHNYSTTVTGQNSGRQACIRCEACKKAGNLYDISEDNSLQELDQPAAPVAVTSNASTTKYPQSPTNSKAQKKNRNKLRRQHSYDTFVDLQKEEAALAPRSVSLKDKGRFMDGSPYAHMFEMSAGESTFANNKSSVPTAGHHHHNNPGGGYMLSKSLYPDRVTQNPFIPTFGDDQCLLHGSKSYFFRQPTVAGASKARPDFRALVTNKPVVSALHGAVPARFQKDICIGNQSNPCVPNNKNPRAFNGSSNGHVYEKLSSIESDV

On to `FCCOc1cnc(OCc2cn(-c3ccc(F)c(Br)c3)nn2)nc1` [Example 618, 2-[[1-(3-Bromo-4-fluoro-phenyl)triazol-4-yl]methoxy]-5-(2-fluoroethoxy)pyrimidine], for which the IC50 is 0.006 µM.

Turning to `Fc1ccc(-n2cc(COc3ncccn3)nn2)cc1Cl` [Example 619, 2-[[1-(3-Chloro-4-fluoro-phenyl)triazol-4-yl]methoxy]pyrimidine], the IC50 amounted to 0.217 µM.

With `Cc1cnc(OCc2cn(-c3ccc(F)c(Cl)c3)nn2)nc1` [Example 620, 2-[[1-(3-Chloro-4-fluoro-phenyl)triazol-4-yl]methoxy]-5-methyl-pyrimidine], the half-maximal inhibitory concentration (IC50) turned out to be 0.008 µM.

Turning to `CCc1cnc(OCc2cn(-c3ccc(F)c(Cl)c3)nn2)nc1` [Example 621, 2-[[1-(3-Chloro-4-fluoro-phenyl)triazol-4-yl]methoxy]-5-ethyl-pyrimidine], the IC50 came out at 0.003 µM.

Take `COCc1ccnc(OCc2cn(-c3ccc(F)c(Cl)c3)nn2)n1` [Example 622, 2-[[1-(3-Chloro-4-fluoro-phenyl)triazol-4-yl]methoxy]-4-(methoxymethyl)pyrimidine]: the IC50 came to 0.066 µM.

Regarding `CC(C)c1ccnc(OCc2cn(-c3ccc(Cl)c(C(F)F)c3)nn2)n1` [Example 623, 2-[[1-[4-Chloro-3-(difluoromethyl)phenyl]triazol-4-yl]methoxy]-4-isopropyl-pyrimidine], the IC50 stood at 0.129 µM.

With `OCc1cnc(OCc2cn(-c3ccc(Cl)c(C(F)F)c3)nn2)nc1` [Example 624, [2-[[1-[4-Chloro-3-(difluoromethyl)phenyl]triazol-4-yl]methoxy]pyrimidin-5-yl]methanol], the IC50 amounted to 0.02 µM.

Take `OCc1ccnc(OCc2cn(-c3ccc(Cl)c(C(F)F)c3)nn2)n1` [Example 625, [2-[[1-[4-Chloro-3-(difluoromethyl)phenyl]triazol-4-yl]methoxy]pyrimidin-4-yl]methanol]: the IC50 amounted to 0.017 µM.

`CC(C)(O)c1cnc(OCc2cn(-c3ccc(Cl)c(C(F)F)c3)nn2)nc1` [Example 626, 2-[2-[[1-[4-Chloro-3-(difluoromethyl)phenyl]triazol-4-yl]methoxy]pyrimidin-5-yl]propan-2-ol]: the IC50 was 0.067 µM.

Turning to `COCc1ccnc(OCc2cn(-c3ccc(Cl)c(C(F)F)c3)nn2)n1` [Example 627, 2-[[1-[4-Chloro-3-(difluoromethyl)phenyl]triazol-4-yl]methoxy]-4-(methoxymethyl)pyrimidine], the IC50 was 0.038 µM.

As for `FC(F)c1ccnc(OCc2cn(-c3ccc(Cl)c(C(F)F)c3)nn2)n1` [Example 628, 2-[[1-[4-Chloro-3-(difluoromethyl)phenyl]triazol-4-yl]methoxy]-4-(difluoromethyl)pyrimidine], the IC50 stood at 0.042 µM.

As for `CN(C)c1ccnc(OCc2cn(-c3ccc(Cl)c(C(F)F)c3)nn2)n1` [Example 629, 2-[[1-[4-Chloro-3-(difluoromethyl)phenyl]triazol-4-yl]methoxy]-N,N-dimethyl-pyrimidin-4-amine], the IC50 was 0.007 µM.

For `FC(F)c1cc(-n2cc(COc3ncc(C4CC4)cn3)nn2)ccc1Cl` [Example 630, 2-[[1-[4-Chloro-3-(difluoromethyl)phenyl]triazol-4-yl]methoxy]-5-cyclopropyl-pyrimidine], the half-maximal inhibitory concentration (IC50) was found to be 0.013 µM.

Regarding `FC(F)c1cc(-n2cc(COc3nccc(C4CC4)n3)nn2)ccc1Cl` [Example 631, 2-[[1-[4-Chloro-3-(difluoromethyl)phenyl]triazol-4-yl]methoxy]-4-cyclopropyl-pyrimidine], the IC50 was determined as 0.042 µM.

Consider `Cc1cnc(OCc2cn(-c3ccc(Cl)c(C(F)F)c3)nn2)nc1N` [Example 632, 2-[[1-[4-chloro-3-(difluoromethyl)phenyl]triazol-4-yl]methoxy]-5-methyl-pyrimidin-4-amine], for which the IC50 was 0.004 µM.

For `Cc1cnc(OCc2cn(-c3ccc(Cl)c(C(F)F)c3)nn2)nc1N(C)C` [Example 633, 2-[[1-[4-Chloro-3-(difluoromethyl)phenyl]triazol-4-yl]methoxy]-N,N,5-trimethyl-pyrimidin-4-amine], the IC50 was 0.057 µM.

Regarding `FC(F)c1cc(-n2cc(COc3nccc(N4CCCC4)n3)nn2)ccc1Cl` [Example 634, 2-[[1-[4-Chloro-3-(difluoromethyl)phenyl]triazol-4-yl]methoxy]-4-pyrrolidin-1-yl-pyrimidine], the IC50 came out at 0.012 µM.

In the case of `FC(F)c1cc(-n2cc(COc3nccc(N4CCCCC4)n3)nn2)ccc1Cl` [Example 635, 2-[[1-[4-Chloro-3-(difluoromethyl)phenyl]triazol-4-yl]methoxy]-4-(1-piperidyl)pyrimidine], the half-maximal inhibitory concentration (IC50) is 0.169 µM.

Take `FCCOc1cnc(OCc2cn(-c3ccc(Cl)c(C(F)F)c3)nn2)nc1` [Example 636, 2-[[1-[4-Chloro-3-(difluoromethyl)phenyl]triazol-4-yl]methoxy]-5-(2-fluoroethoxy)pyrimidine]: the half-inhibitory concentration (IC50) stood at 0.01 µM.

`FCCCc1cnc(OCc2cn(-c3ccc(Cl)c(C(F)F)c3)nn2)nc1` [Example 637, 2-[[1-[4-Chloro-3-(difluoromethyl)phenyl]triazol-4-yl]methoxy]-5-(3-fluoropropyl)pyrimidine]: the IC50 was 0.011 µM.

In the case of `Cc1cnc(OCc2cn(-c3ccc(N4CCC4)c(C(F)F)c3)nn2)nc1` [Example 638, 2-((1-(4-(Azetidin-1-yl)-3-(difluoromethyl)phenyl)-1H-1,2,3-triazol-4-yl)methoxy)-5-methylpyrimidine], the IC50 was 0.511 µM.

Regarding `Cc1c(F)ccc(-n2cc(COc3ncc(C(C)C)cn3)nn2)c1F` [Example 639, 2-[[1-(2,4-Difluoro-3-methyl-phenyl)triazol-4-yl]methoxy]-5-isopropyl-pyrimidine], the IC50 worked out at 0.052 µM.

With `Cc1c(F)ccc(-n2cc(COc3nccc(C(C)C)n3)nn2)c1F` [Example 640, 2-[[1-(2,4-Difluoro-3-methyl-phenyl)triazol-4-yl]methoxy]-4-isopropyl-pyrimidine], the IC50 was found to be 1.98 µM.

As for `Cc1c(F)ccc(-n2cc(COc3ncc(C(F)F)cn3)nn2)c1F` [Example 641, 5-(Difluoromethyl)-2-[[1-(2,4-difluoro-3-methyl-phenyl)triazol-4-yl]methoxy]pyrimidine], the IC50 is 0.111 µM.

Turning to `Cc1c(F)ccc(-n2cc(COc3nccc(C(F)F)n3)nn2)c1F` [Example 642, 4-(Difluoromethyl)-2-[[1-(2,4-difluoro-3-methyl-phenyl)triazol-4-yl]methoxy]pyrimidine], the IC50 was 2.21 µM.

Consider `Cc1c(F)ccc(-n2cc(COc3ncc(C(F)(F)F)cn3)nn2)c1F` [Example 643, 2-[[1-(2,4-Difluoro-3-methyl-phenyl)triazol-4-yl]methoxy]-5-(trifluoromethyl)pyrimidine], for which the IC50 worked out at 0.2 µM.

Turning to `Cc1c(F)ccc(-n2cc(COc3ncc(C(C)(C)O)cn3)nn2)c1F` [Example 644, 2-[2-[[1-(2,4-Difluoro-3-methyl-phenyl)triazol-4-yl]methoxy]pyrimidin-5-yl]propan-2-ol], the IC50 is 0.967 µM.

Regarding `COCc1ccnc(OCc2cn(-c3ccc(F)c(C)c3F)nn2)n1` [Example 645, 2-[[1-(2,4-Difluoro-3-methyl-phenyl)triazol-4-yl]methoxy]-4-(methoxymethyl)pyrimidine], the IC50 is 0.799 µM.

Regarding `Cc1c(F)ccc(-n2cc(COc3ncc(OC(F)F)cn3)nn2)c1F` [Example 646, 5-(Difluoromethoxy)-2-[[1-(2,4-difluoro-3-methyl-phenyl)triazol-4-yl]methoxy]pyrimidine], the IC50 was 0.099 µM.

As a reminder, the IC50 is the concentration that inhibits the measured activity by half.
